One assay relates to Spodoptera littoralis. Description: Antifeedant activity against Spodoptera littoralis assessed as antifeedant index at 100 ppm. Format: functional.
As for `CC1(C)CCC[C@@]2(C)[C@H](c3ccoc3)C(=O)[C@H]3O[C@@]312` (racemic), the AFI came to 28%.

For the compound `CC1(C)CCC[C@@]2(C)[C@H](c3ccoc3)C(=O)[C@H]3O[C@@]312` (stereo in doubt; (-)), the AFI came out at 32%.

`CC1(C)CCC[C@@]2(C)[C@H](c3ccoc3)C(=O)[C@H]3O[C@@]312` (stereo in doubt; (+)): the AFI was found to be 55%. On the same count and under the same terms, next, `CC(=O)O[C@@H]1C[C@H]2C(C)(C)C(=O)C=C[C@]2(C)[C@H]2CC[C@@]3(C)[C@H](c4ccoc4)C(=O)[C@H]4O[C@]43[C@@]21C` [EPOXYAZADIRADIONE]: 22%; `CC(=O)O[C@@H]1C[C@H]2C(C)(C)C(=O)C=C[C@]2(C)[C@H]2CC[C@]3(C)C(=CC(=O)[C@H]3c3ccoc3)[C@@]21C` [AZADIRADIONE]: 1%; `CC1(C)CCC[C@]2(C)C1=CC(=O)[C@H]2c1ccoc1` (racemic): 16%.

For the next assay, the system named is Spodoptera frugiperda. Description: Antifeedant activity against Spodoptera frugiperda (fall armyworm) assessed as antifeedant index at 100 ppm. Type of assay: functional.
Turning to `O=C1C=C2CCCC[C@H]2[C@@H]1c1ccoc1` (racemic), the AFI worked out at 42%. For the compound `O=C1[C@H]2O[C@]23CCCC[C@H]3[C@@H]1c1ccsc1` (racemic), the AFI was determined as 36%. Still for that read-out and setting: next, `O=C1C=C2CCCC[C@H]2[C@@H]1c1ccccc1` (racemic): 40%; `C[C@@H]1CCC[C@@]2(C)[C@H](c3ccoc3)C(=O)[C@H]3O[C@]132` (racemic): 29%. With `O=C1C=C2CCCC[C@H]2[C@@H]1c1ccsc1` (racemic), the AFI was 1%. The same measure, in the same setting: next, `O=C1[C@H]2O[C@]23CCCC[C@H]3[C@@H]1c1ccccc1` (racemic): -12%.

These data come from ChEMBL document CHEMBL3046677, “Diastereoselective synthesis of the model insect antifeedants related to azadiradione and epoxyazadiradione based on intramolecular insertion of -aryl--diazoketones” (1998).
